Data on 32 molecules can be found in ChEMBL document CHEMBL1615344, “Cerep in vitro phospholipidosis assay data”.

Data set [1] in a line: (§1) Cerep Phospholipidosis assay (HepG2 cells). It counts as ADME, cell-based. As to conditions: human, HepG2 cells; read-out: Maximum test concentration that did not exhibit cytotoxicity.
The subject of data set [2] is Phospholipidosis. Described as §1. As to conditions: human, hepg2. It counts as ADME, cell-based.

As for `CC(=O)Nc1ccc(O)cc1` [ACETAMINOPHEN], in data set [1], the MNTC is 100 µM. The “Phospholipidosis as % of positive control” value (“Phospholipidosis as %” for short) in data set [2] was 0.3%. Consider `Nc1c(Br)cc(Br)cc1CN[C@H]1CC[C@H](O)CC1` [AMBROXOL], for which the MNTC in data set [1] was 50 µM. Moreover, the “Phospholipidosis as %” value in data set [2] turned out to be 29.7%. The matching figures for `NCC[C@H](O)C(=O)N[C@@H]1C[C@H](N)[C@@H](O[C@H]2O[C@H](CN)[C@@H](O)[C@H](O)[C@H]2O)[C@H](O)[C@H]1O[C@H]1O[C@H](CO)[C@@H](O)[C@H](N)[C@H]1O` [AMIKACIN]: 25 µM and 4.9%.

As to `CCCCc1oc2ccccc2c1C(=O)c1cc(I)c(OCCN(CC)CC)c(I)c1` [AMIODARONE], the MNTC in data set [1] was 6.25 µM. Further, the “Phospholipidosis as %” value in data set [2] was determined as 38.4%. On the same counts, the results for `CN(C)CCC=C1c2ccccc2CCc2ccccc21` [AMITRIPTYLINE] are 20 µM and 49.8%. The matching figures for `CC[C@H]1OC(=O)[C@H](C)[C@@H](O[C@H]2C[C@@](C)(OC)[C@@H](O)[C@H](C)O2)[C@H](C)[C@@H](O[C@@H]2O[C@H](C)C[C@H](N(C)C)[C@H]2O)[C@](C)(O)C[C@@H](C)CN(C)[C@H](C)[C@@H](O)[C@]1(C)O` [AZITHROMYCIN]: 25 µM and 26.7%.

Consider `CN(Cc1cc(Br)cc(Br)c1N)C1CCCCC1` [BROMHEXINE], for which the MNTC in data set [1] was 50 µM. The “Phospholipidosis as %” value in data set [2] is recorded as 30.1%. On the same counts, the results for `CCN(CC)CCCC(C)Nc1ccnc2cc(Cl)ccc12` (stereo not drawn) [CHLOROQUINE] are 10 µM and 22.8%. The matching figures for `CN(C)CCCN1c2ccccc2Sc2ccc(Cl)cc21` [CHLORPROMAZINE]: 5 µM and 54.7%. The matching figures for `CN(C)CCCC1(c2ccc(F)cc2)OCc2cc(C#N)ccc21` (stereo not drawn) [CITALOPRAM]: 100 µM and 19.6%. Turning to `CN1CCN(C2=Nc3cc(Cl)ccc3Nc3ccccc32)CC1` [CLOZAPINE], the MNTC in data set [1] was 12.5 µM. For the same molecule, in data set [2], the “Phospholipidosis as %” value is 18.9%. For the molecule `CN(C)CCC=C1c2ccccc2COc2ccccc21` [DOXEPIN], the MNTC in data set [1] stood at 25 µM. Also, the “Phospholipidosis as %” value in data set [2] is recorded as 36.4%.

In the case of `CC[C@H]1OC(=O)[C@H](C)[C@@H](O[C@H]2C[C@@](C)(OC)[C@@H](O)[C@H](C)O2)[C@H](C)[C@@H](O[C@@H]2O[C@H](C)C[C@H](N(C)C)[C@H]2O)[C@](C)(O)C[C@@H](C)C(=O)[C@H](C)[C@@H](O)[C@]1(C)O` [ERYTHROMYCIN], the MNTC in data set [1] stood at 50 µM. Moreover, the “Phospholipidosis as %” value in data set [2] came out at 61.9%. Consider `CNCCC(Oc1ccc(C(F)(F)F)cc1)c1ccccc1` (stereo not drawn) [FLUOXETINE], for which, in data set [1], the MNTC worked out at 5 µM. Take `O=C(CCCN1CCC(O)(c2ccc(Cl)cc2)CC1)c1ccc(F)cc1` [HALOPERIDOL]: the MNTC in data set [1] stood at 12.5 µM. Moreover, the “Phospholipidosis as %” value in data set [2] was 42.1%. On the same counts, the results for `OCCOCCN1CCN(C(c2ccccc2)c2ccc(Cl)cc2)CC1` (stereo not drawn) [HYDROXYZINE] are 25 µM and 35.8%. The matching figures for `CN(C)CCCN1c2ccccc2CCc2ccccc21` [IMIPRAMINE]: 6.25 µM and 2.1%. The matching figures for `CC(=O)N1CCN(c2ccc(OCC3COC(Cn4ccnc4)(c4ccc(Cl)cc4Cl)O3)cc2)CC1` (stereo not drawn) [KETOCONAZOLE]: 12.5 µM and 52%. For the molecule `CC(CCc1ccccc1)NCC(O)c1ccc(O)c(C(N)=O)c1` (stereo not drawn) [LABETALOL], the MNTC in data set [1] came out at 25 µM. In addition, in data set [2], the “Phospholipidosis as %” value is listed as 5.3%. The matching figures for `CNCCCC12CCC(c3ccccc31)c1ccccc12` [MAPROTILINE]: 6.25 µM and 42.2%. As for `Cc1cccc(CN2CCN(C(c3ccccc3)c3ccc(Cl)cc3)CC2)c1` (stereo not drawn) [MECLIZINE], the MNTC in data set [1] came to 25 µM. Further, in data set [2], the “Phospholipidosis as %” value worked out at 10.5%. `CC1=CC(=O)c2ccccc2C1=O` [MENADIONE]: the MNTC in data set [1] stood at 3.13 µM. The “Phospholipidosis as %” value in data set [2] was determined as 1%. On the same counts, the results for `CC1COc2c(N3CCN(C)CC3)c(F)cc3c(=O)c(C(=O)O)cn1c23` (stereo not drawn) [OFLOXACIN] are 50 µM and 0.3%. The matching figures for `C1CCC(C(CC2CCCCN2)C2CCCCC2)CC1` (stereo not drawn) [PERHEXILINE]: 3.13 µM and 36%. On the same counts, the results for `CC(C)NCC(O)COc1cccc2ccccc12` (stereo not drawn) [PROPRANOLOL] are 25 µM and 36%. For `C=C[C@H]1C[N@@]2CC[C@H]1C[C@@H]2[C@@H](O)c1ccnc2ccc(OC)cc12` [QUINIDINE], the MNTC in data set [1] was 25 µM. In data set [2], the “Phospholipidosis as %” value stood at 3.2%. On the same counts, the results for `CN[C@H]1CC[C@@H](c2ccc(Cl)c(Cl)c2)c2ccccc21` [SERTRALINE] are 3.13 µM and 100%. On the same counts, the results for `CC(C)NCC(O)c1ccc(NS(C)(=O)=O)cc1` (stereo not drawn) [SOTALOL] are 50 µM and 0.3%. `CC/C(=C(\c1ccccc1)c1ccc(OCCN(C)C)cc1)c1ccccc1` [TAMOXIFEN]: in data set [1], the MNTC turned out to be 6.25 µM. The “Phospholipidosis as %” value in data set [2] is listed as 53%. The matching figures for `CCN(CC)CCOc1ccc2c(c1)C(=O)c1cc(OCCN(CC)CC)ccc1-2` [TILORONE]: 3.13 µM and 20.2%.

Consider `CCN(CC)CCOc1ccc(C(O)(Cc2ccc(Cl)cc2)c2ccc(C)cc2)cc1` (stereo not drawn) [TRIPARANOL], for which the MNTC in data set [1] was 3.13 µM. The “Phospholipidosis as %” value in data set [2] is recorded as 44.9%. The matching figures for `CCCC(CCC)C(=O)O` [VALPROIC ACID]: 100 µM and 0.2%.
